Reference: patent publication US20240383874A1, “BENZENE RING DERIVATIVE, AND COMPOSITION AND PHARMACEUTICAL USE THEREOF” (Xizang Haisco Pharmaceutical Co., Ltd., priority 2020, published 2024)
Structures can show the parent of a compound that is named as a salt.

Test system: 22RV1 cells
Assay: Experiment 2 on inhibiting 22RV1 cell proliferation (7 days, CellTiter-Glo)
Type: cell-based
Conditions: Homo sapiens, 22Rv1, 168 h, 1% css-FBS phenol red-free medium, incubated with compound 7 days, read-out: IC50 values on proliferation inhibition of 22RV1 cells
Procedure: Prostate cancer cells 22RV1 were purchased from ATCC, the cell medium was RPMI 1640+10% FBS, and the cells were cultured in an incubator at 37° C. under 5% CO2. On day 1, the cells in an exponential phase were collected. With a 1% css-FBS phenol red-free medium, the cell suspension was adjusted to a corresponding concentration, plated at 2000 cells/well and incubated overnight. On day 2, compounds at different concentrations were added, and the plate was placed in the incubator and incubated for further 7 days. After the incubation was completed, according to operation instructions for a CellTiter-Glo kit (Promega, G7573), 50 μL of CTG solution, which was already pre-melted and equilibrated to room temperature, was added to each well, and the mixtures were uniformly mixed for 2 min using a microplate shaker. The plate was placed at room temperature for 10 min, and then fluorescence signal values were measured using a microplate reader (PHERAstar FSX). The results were processed according to formula (2), the survival rate of the compound at different concentrations was calculated, and the IC50 value of the compound with a survival rate of 50% was calculated using origin9.2 software with DoseResp function, wherein RLU compound was the readout of the treated group, and RLU control was the average value of the DMSO vehicle control group.

SMILES | IC50
CC(C)(c1ccc(OCc2ccnc(N3CCN(C4CN(CC5CN(c6ccc7c(c6)C(=O)N(C6CCC(=O)NC6=O)C7=O)C5)C4)CC3)n2)cc1)c1cc(Cl)cc(C#N)c1 (stereo not shown) [Compound 57 trifluoroacetate, 3-chloro-5-(2-(4-((2-(4-(1-((1-(2-(2,6-dioxopiperidin-3-yl)-1,3-dioxoisoindolin-5-yl)azetidin-3-yl)methyl)azetidin-3-yl)piperazin-1-yl)pyrimidin-4-yl)methoxy)phenyl)propan-2-yl)benzonitrile] | 687 nM
CC(C)(c1ccc(OCc2ccnc(N3CCN(C4CN(CC5CCN(c6ccc7c(c6)C(=O)N(C6CCC(=O)NC6=O)C7=O)C5)C4)CC3)n2)cc1)c1cc(Cl)cc(C#N)c1 (stereo not shown) [Compound 58 trifluoroacetate, 3-chloro-5-(2-(4-((2-(4-(1-((1-(2-(2,6-dioxopiperidin-3-yl)-1,3-dioxoisoindolin-5-yl)pyrrolidin-3-yl)methyl)azetidin-3-yl)piperazin-1-yl)pyrimidin-4-yl)methoxy)phenyl)propan-2-yl)benzonitrile] | 744 nM
CC(C)(c1ccc(OCc2ccnc(N3CCN(C4CC5(CCN(C6CC7(CCN(c8ccc9c(c8)C(=O)N(C8CCC(=O)NC8=O)C9=O)CC7)C6)CC5)C4)CC3)n2)cc1)c1cc(Cl)cc(C#N)c1 (stereo not shown) [Compound 59 trifluoroacetate, 3-chloro-5-(2-(4-((2-(4-(7-(2-(2,6-dioxopiperidin-3-yl)-1,3-dioxoisoindolin-5-yl)-7,7′-diaza[2,7′-bispiro[3.5]nonan]-2′-yl)piperazin-1-yl)pyrimidin-4-yl)methoxy)phenyl)propan-2-yl)benzonitrile] | 647 nM
CC(C)(c1ccc(OCc2ccnc(N3CCN(C4CCN(CC5CN(c6ccc7c(c6)C(=O)N(C6CCC(=O)NC6=O)C7=O)C5)C4)CC3)n2)cc1)c1cc(Cl)cc(C#N)c1 (stereo not shown) [Compound 61 trifluoroacetate, 3-chloro-5-(2-(4-((2-(4-(1-((1-(2-(2,6-dioxopiperidin-3-yl)-1,3-dioxoisoindolin-5-yl)azetidin-3-yl)methyl)pyrrolidin-3-yl)piperazin-1-yl)pyrimidin-4-yl)methoxy)phenyl)propan-2-yl)benzonitrile] | 632 nM

Continued, values first:

IC50 | SMILES
716 nM | CC(C)(c1ccc(OCc2ccnc(N3CCN(C4CN(CC5CCN(c6ccc7c(c6)C(=O)N(C6CCC(=O)NC6=O)C7=O)CC5)C4)CC3)n2)cc1)c1cc(Cl)cc(C#N)c1 (stereo not shown) [Compound 56 trifluoroacetate, 3-chloro-5-(2-(4-((2-(4-(1-((1-(2-(2,6-dioxopiperidin-3-yl)-1,3-dioxoisoindolin-5-yl)piperidin-4-yl)methyl)azetidin-3-yl)piperazin-1-yl)pyrimidin-4-yl)methoxy)phenyl)propan-2-yl)benzonitrile]
866 nM | CC(C)(c1ccc(OCc2ccnc(N3CCN(C4CC5(CCN(CC6CCN(c7ccc8c(c7)C(=O)N(C7CCC(=O)NC7=O)C8=O)CC6)CC5)C4)CC3)n2)cc1)c1cc(Cl)cc(C#N)c1 (stereo not shown) [Compound 60 trifluoroacetate, 3-chloro-5-(2-(4-((2-(4-(7-((1-(2-(2,6-dioxopiperidin-3-yl)-1,3-dioxoisoindolin-5-yl)piperidin-4-yl)methyl)-7-azaspiro[3.5]nonan-2-yl)piperazin-1-yl)pyrimidin-4-yl)methoxy)phenyl)propan-2-yl)benzonitrile]
735 nM | CC(C)(c1ccc(OCc2ccnc(N3CCN(C4CCN(CC5CCN(c6ccc7c(c6)C(=O)N(C6CCC(=O)NC6=O)C7=O)C5)C4)CC3)n2)cc1)c1cc(Cl)cc(C#N)c1 (stereo not shown) [Compound 62 trifluoroacetate, 3-chloro-5-(2-(4-((2-(4-(1-((1-(2-(2,6-dioxopiperidin-3-yl)-1,3-dioxoisoindolin-5-yl)pyrrolidin-3-yl)methyl)pyrrolidin-3-yl)piperazin-1-yl)pyrimidin-4-yl)methoxy)phenyl)propan-2-yl)benzonitrile]
